Assays:
Assay in all cases: relative viability (nuclei count vs DMSO), 5 days (fraction); higher = more cells survive
[1] = compound: O=C(CCCCCCC(=O)Nc1ccccc1)NO [Vorinostat] + Cc1cc(Nc2cc(N3CCN(C)CC3)nc(Sc3ccc(NC(=O)C4CC4)cc3)n2)n[nH]1 [Tozasertib] (partner 0.1 µM)
Procedure, shortened: (§1)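 Lung cancer cell lines were pin-tool dosed in 1536-well plates on the day after seeding, with either a lone drug or a fixed anchor-drug dose plus five library-drug doses (not always all listed) in √10 steps. Nuclei were counted on 4× images after 5 days. Relative viability is the ratio of treated-well to vehicle-well nuclei counts, with each value a median of duplicate plates.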

[2] = compound: O=C(CCCCCCC(=O)Nc1ccccc1)NO [Vorinostat] + Nc1nc2[nH]cc(CCc3ccc(C(=O)N[C@@H](CCC(=O)O)C(=O)O)cc3)c2c(=O)[nH]1 [Pemetrexed] (partner 0.2 µM)
Procedure, shortened: as §1

[3] = compound: O=C(CCCCCCC(=O)Nc1ccccc1)NO [Vorinostat] + CC(=O)Nc1cccc(-n2c(=O)n(C3CC3)c(=O)c3c(Nc4ccc(I)cc4F)n(C)c(=O)c(C)c32)c1 [Trametinib] (partner 0.02 µM)
Procedure, shortened: as §1

[4] = compound: O=C(CCCCCCC(=O)Nc1ccccc1)NO [Vorinostat] + COc1cc2c(Oc3ccc(NC(=O)C4(C(=O)Nc5ccc(F)cc5)CC4)cc3F)ccnc2cc1OCCCN1CCOCC1 [Foretinib] (partner 0.25 µM)
Procedure, shortened: as §1

[5] = compound: O=C(CCCCCCC(=O)Nc1ccccc1)NO [Vorinostat] + CC(C)C[C@H](NC(=O)[C@H](Cc1ccccc1)NC(=O)c1cnccn1)B(O)O [Bortezomib] (partner 0.002 µM)
Procedure, shortened: as §1

Cell Line	relative viability ([1]; first compound 0.253 µM)	relative viability ([1]; first compound 0.8 µM)	relative viability ([1]; first compound 2.53 µM)	relative viability ([1]; first compound 8 µM)	relative viability ([2]; first compound 0.253 µM)	relative viability ([2]; first compound 0.8 µM)	relative viability ([2]; first compound 2.53 µM)	relative viability ([2]; first compound 8 µM)	relative viability ([3]; first compound 0.253 µM)	relative viability ([3]; first compound 0.8 µM)	relative viability ([3]; first compound 2.53 µM)	relative viability ([3]; first compound 8 µM)	relative viability ([4]; first compound 0.253 µM)	relative viability ([4]; first compound 0.8 µM)	relative viability ([4]; first compound 2.53 µM)	relative viability ([4]; first compound 8 µM)	relative viability ([5]; first compound 0.253 µM)	relative viability ([5]; first compound 0.8 µM)	relative viability ([5]; first compound 2.53 µM)	relative viability ([5]; first compound 8 µM)
LCLC-103H	0.377	0.27	0.162	0.127	0.471	0.425	0.452	0.32	0.804	0.7	0.473	0.337	0.924	0.801	0.243	0.135	1.16	0.893	0.391	0.238
LU99A	0.299	0.259	0.208	0.213	0.14	0.182	0.162	0.112	0.614	0.54	0.33	0.138	0.81	0.692	0.319	0.222	1.09	0.863	0.298	0.158
NCI-H1975	0.762	0.484	0.118	0.077	0.323	0.243	0.183	0.133	0.395	0.311	0.123	0.106	0.962	0.838	0.295	0.108	0.438	0.198	0.0889	0.081
LOU-NH91	0.615	0.481	0.36	0.295	0.362	0.324	0.387	0.351	0.883	0.857	0.754	0.455	1.08	0.917	0.758	0.347	0.514	0.475	0.438	0.354
HOP-62	0.405	0.32	0.116	0.08	0.393	0.28	0.212	0.0997	0.509	0.406	0.16	0.0861	1.03	1.1	0.365	0.122	1.25	0.434	0.328	0.0711
LC-2-ad	0.418	0.303	0.217	0.147	0.273	0.268	0.263	0.19	0.936	0.776	0.435	0.221	0.984	0.681	0.268	0.145	1.01	0.579	0.146	0.0588
NCI-H650	0.686	0.421	0.154	0.136	0.953	0.918	0.287	0.11	1.24	0.839	0.243	0.111	0.998	0.907	0.213	0.151	0.523	0.42	0.19	0.144
NCI-H520	0.422	0.37	0.207	0.209	0.831	0.663	0.322	0.17	0.959	0.549	0.212	0.124	0.965	0.791	0.555	0.179	0.605	0.164	0.13	0.107
NCI-H2126	0.731	0.444	0.212	0.171	0.776	0.666	0.419	0.208	0.612	0.533	0.296	0.166	1.14	0.968	0.365	0.235	1.13	1.13	0.943	0.371
ChaGo-K-1	0.221	0.213	0.191	0.164	0.254	0.26	0.254	0.218	0.973	0.792	0.5	0.193	1	0.863	0.559	0.189	0.954	0.932	0.467	0.282
NCI-H1437	0.371	0.338	0.18	0.104	0.308	0.3	0.187	0.151	0.481	0.368	0.23	0.155	1.25	1.22	0.546	0.171	0.578	0.417	0.117	0.0915
PC-3 [JPC-3]	0.821	0.741	0.229	0.266	1.1	0.866	0.285	0.281	0.695	0.644	0.405	0.348	1.02	1.03	0.316	0.239	0.846	0.85	0.398	0.216
NCI-H1915	0.426	0.267	0.118	0.104	0.531	0.494	0.371	0.102	0.36	0.291	0.227	0.101	1.14	1.05	0.474	0.137	1.01	0.951	0.54	0.112
BEN	0.463	0.441	0.248	0.0886	0.712	0.572	0.474	0.145	0.928	0.659	0.367	0.149	0.8	0.414	0.149	0.0734	0.941	0.479	0.201	0.0496
NCI-H2085	0.771	0.651	0.376	0.311	1.02	0.738	0.45	0.18	0.587	0.503	0.285	0.155	0.968	0.665	0.468	0.228	0.942	0.841	0.566	0.265
CAL-12T	0.446	0.246	0.162	0.109	1.36	1.31	1.08	0.126	0.433	0.499	0.223	0.0898	1.34	1.14	0.721	0.119	1.22	0.984	0.406	0.148
NCI-H2347	0.66	0.432	0.244	0.203	0.427	0.41	0.416	0.299	0.242	0.327	0.226	0.203	1.02	0.84	0.587	0.198	0.971	0.843	0.561	0.199
EMC-BAC-2	0.199	0.202	0.149	0.144	0.377	0.368	0.26	0.208	0.836	0.687	0.292	0.154	1.02	0.977	0.4	0.172	1.22	1.02	0.405	0.167
A-427	0.182	0.168	0.134	0.0919	1.02	0.925	0.433	0.196	0.82	0.718	0.361	0.166	1.21	1.13	0.561	0.191	0.991	1.04	0.723	0.21
NCI-H2009	0.776	0.574	0.295	0.133	0.993	0.955	0.666	0.131	0.336	0.311	0.237	0.119	1.28	1.22	0.716	0.143	1.32	0.567	0.233	0.126
NCI-H647	0.279	0.183	0.078	0.0319	0.226	0.138	0.0722	0.0562	0.642	0.497	0.164	0.0479	1.08	1.04	0.507	0.0683	1.18	0.609	0.0719	0.0336
EKVX	0.39	0.275	0.194	0.11	0.384	0.413	0.386	0.146	0.401	0.337	0.18	0.115	0.859	0.931	0.714	0.138	1.14	1.11	0.561	0.175
LCLC-97TM1	0.19	0.158	0.159	0.149	0.155	0.149	0.146	0.0924	0.238	0.207	0.142	0.074	1.06	0.957	0.394	0.153	0.724	0.413	0.121	0.0563
NCI-H2405	0.718	0.692	0.339	0.117	1.18	1.1	0.357	0.122	0.87	0.872	0.486	0.141	1.16	1.15	0.505	0.108	1.06	1.01	0.952	0.206

From the supplement of paper PMC10307832
